From a melting point compilation (Tetko et al.; mined from patent text by program, amines drawn as free bases though some values may be those of a salt)

Structure (SMILES)	melting point
OC1(c2ccc(C(F)(F)F)cc2)CCN(CCCc2noc3cc(F)ccc23)CC1	150 to 152 °C
CC(=O)N1CC=C(C#Cc2ccc3c(c2)NC(=O)CC(c2cccc(C#N)c2)=N3)CC1	203 °C
CC(Cl)c1nc2c(c(=O)n(C)c(=O)n2C)n1C (centres undefined)	190 °C
O=C1C2CCCC2=Nc2ccccc2N1Cc1ccc(Cl)cc1Cl (centres undefined)	144 to 145 °C
COc1nc(-c2ccccc2)n(Cc2ccc(-c3ccccc3S(N)(=O)=O)cc2)c1C=O	188 °C
O=S1(=O)c2ccccc2N(c2ccc(-c3nc4ccccc4n3-c3ccccc3)cc2)c2ccccc21	286 to 288 °C
CCCNC(=O)c1ccccc1N=C(NC(=O)c1ccccc1)SC	86 to 89 °C
CCc1c(Cc2ccccc2)n(COCCO)c(=O)[nH]c1=O	120 to 122 °C
COc1cc(C)c(C=CC(C)=CCCC=O)c(C)c1C	42 to 45 °C
CCOP(=O)(Cc1cc(=O)[nH]c2cc(Cl)c(Cl)cc12)OCC	219 to 222 °C
COc1ccc([N+](=O)[O-])cc1CNC(C)=O	158 to 160 °C
COc1ccc2c(c1)OCC(n1ccnc1)C2=O (centres undefined)	151 to 155 °C
C#CCn1c(-c2cc(Cl)nc(Cl)c2)nc(O)c(CC)c1=O	200 to 202 °C
NC(=O)N1C(=O)C(C(=O)c2cccs2)c2nc(Cl)ccc21 (centres undefined)	222 to 224 °C
COc1ccccc1Oc1c(Cl)nc(-c2ccncc2)nc1NS(=O)(=O)c1ccc(C)cn1	177 to 179 °C
COC(=O)C1CCc2c([nH]c3ccc(Cl)cc23)C1 (centres undefined)	175 to 176 °C
CC(=O)NC[C@H]1CN(c2ccc(N3CCC(Cc4noc(-c5ccccc5)n4)CC3)c(F)c2)C(=O)O1	144 to 146 °C
CNS(=O)(=O)c1ccc2c(c1)C=C(C(=O)O)C(C(F)(F)F)O2 (centres undefined)	208 to 209 °C
COC(=O)c1cccc(/C=C/c2cccc(Br)c2)c1	79 to 84 °C
O=C(COc1ccc(Cl)cc1)N1CC2COCC2C1 (centres undefined)	110 °C
Cn1c(-c2cccc(C(F)(F)F)c2)cc(=O)n(-c2ccc(Cl)cc2F)c1=O	139 to 142 °C
COc1ccc2[nH]c(Sc3ccc(C=O)o3)nc2c1	94 to 99 °C
CCCc1ncc(CC(=O)O)s1	95 °C
CC(CC1=Nc2cc(Cl)ccc2S(=O)(=O)N1)CC(C)(C)C (centres undefined)	243 to 244 °C
COc1ccc2c(c1)C(=O)N(c1ccc3ccoc3c1)C2	141 to 143 °C

Structure (SMILES)	melting point
CC1(C)CC(OC(=O)CCl)CC(C)(C)N1OC1CCCCC1	62 to 64 °C
O=C(O)C1=C(c2ccc3c(c2)OCO3)c2ccccc2S(=O)(=O)N1Cc1ccc2c(c1)OCO2	229 to 230 °C
Nc1cc(CCC(=O)N2CCCCC2)ccc1O	149 to 150 °C
COc1cccc(/C=C(/C(=O)O)c2cc(OC)c(OC)c(OC)c2)c1	68 to 70 °C
Brc1cn2ccnc2c(N2CCOCC2)n1	191 °C
NCCCc1ccc(OCCC2Oc3ccccc3N(Cc3ccc(Cl)cc3)C2=O)cc1 (centres undefined)	95 to 97 °C
O=c1oc(-c2ccccc2)cc(O)c1Oc1ccccc1	215 to 219 °C
COc1ccccc1Nc1c(C(=O)c2ccccc2)cnc2c(OC)cccc12	200 to 202 °C
Cc1cc2c(cc1C)C(c1ccccc1)(C(F)(F)F)c1cc(C)c(C)cc1O2	214 to 215 °C
COc1ccc2c(c1)C(Cc1ccnc(F)c1)(Cc1ccnc(F)c1)c1ccccc1-2	143 to 146 °C
CCCCCN1CC[C@@H](c2ccccc2Br)[C@H](CO)C1 (racemic)	119 to 120 °C
COC(=O)c1cccc(OCc2ccccc2)c1	74 to 77 °C
COc1c(C)cnc(CO)c1C	49 to 51 °C
Oc1cc2c(cc1-c1nc3cc(-c4ccccc4)ccc3o1)oc1ccccc12	293 to 295 °C
O=C1N(c2ccc(Cl)cc2Cl)Cc2cnc(Nc3ccccc3)nc2N1c1cccc(CCN2CCOCC2)c1	118 °C
COC(=O)CC[C@@H](Cc1cn(Cc2ccccc2)c2ccccc12)NC(=O)CCCCCCc1ccccc1	107 to 109 °C
CCCc1nc2c(c(C)c(C)n3nnnc23)n1CC(C)(C)NC(=O)c1ccccc1	221 to 223 °C
NC(=O)c1ccc(C(O)c2c(O)c(=O)ccn2CCO)cc1 (centres undefined)	215 to 216 °C
CC(=O)c1c(C)sc(-c2ccncc2)c1C	80 to 81 °C
Clc1ccc2c(c1)N=C(N1CCN(C3CC3)CC1)c1ccccc1N2	196 to 199 °C
COc1ccc(C(=O)O)c2c1oc1ccccc12	280 °C
CCc1cc2cc(O)ccc2c(Oc2ccc(/C=C/C(=O)O)cc2)c1-c1ccccc1	188 to 190 °C
CC(C)(N)COC(=O)CCc1cc(C(C)(C)C)c(O)c(C(C)(C)C)c1	97 to 99 °C
COc1cc(C)c(Nc2nnc3n2C(c2ccc(F)cc2)CSC3)cc1OC (centres undefined)	165 to 166 °C
COc1ccc2cc(C(C)C(=O)ON3CCCCC3)ccc2c1 (centres undefined)	95 to 97 °C

Structure (SMILES)	melting point
Cc1ccc2c(c1C)N(c1ncnc3cnccc13)CC2	248 °C
CC(COc1ccc(C(N)=O)c(O)c1)NCC(O)COc1cccc2c1CCC(=O)N2 (centres undefined)	239 to 245 °C
NS(=O)(=O)c1cc2c(Cl)c(N3CCOCC3)ccc2s1	195 to 199 °C
FC(F)(F)c1nc(Cl)c2cc(I)ccc2n1	145 to 146 °C
Nc1nc(N)nc(N2CCNCC2)n1	262 to 268 °C
COS(=O)(=O)c1ccc(Cl)cc1NC(=O)/C=C/c1ccc2ccccc2c1	178 to 180 °C
NNc1nnc(Cl)cc1N	190 °C
On1cc(-c2ccccc2)[nH]c1=S	196 °C
CCCCN(CCCC)C(=O)c1c(C)n(CCc2ccccc2)c2ccc(O)c(CN3CCCCC3)c12	105 to 107 °C
CCCCCCCCCCc1cnc(-c2ccc3c(c2)C(=O)C(CCCCCC)C3)nc1 (centres undefined)	87 °C
CCOC(=O)C(=O)/C=C/c1ccc(OCCc2nc(-c3ccccc3)oc2C)cc1	99 to 100 °C
COc1ccc2c(Cc3c(Cl)cncc3Cl)nnc(-n3cncn3)c2c1	207 to 208 °C
COC1(C)CCc2ccc(O)cc2O1 (centres undefined)	107 to 108 °C
COC(=O)Nc1cccc(-c2ccc3nncn3n2)c1	210 to 212 °C
CCOC(=O)c1sc(-n2c(=O)n(Cc3ccc(F)cc3)c3ccccc32)nc1C	192 to 193 °C
CC(C)OCC1(C(F)(F)F)c2cc(C#N)ccc2Nc2ncc(Br)cc21 (centres undefined)	76 to 77 °C
BrCC1(c2ccc3ccccc3c2)OCCO1	64 °C
OCCOc1ccc(-n2cncn2)cc1	151 to 152 °C
CCc1nnc(-c2ccc(-c3ccc(C(=O)N4CCCc5cc6c(cc54)C4(CCN(C)CC4)CO6)cc3)c(C)c2)o1	241 to 243 °C
Cc1ccc2c3c(c(=O)oc2c1)CN(Cc1ccccc1)CC3	109 to 111 °C
CN(C)C=C1N=C(c2ccccc2Cl)c2cc(Cl)ccc2N(C)C1=O	199 to 200 °C
Cc1nc(-c2ccc3c(c2)OCC32C(=O)N(Cc3ccccn3)c3ccccc32)no1 (centres undefined)	147 to 148 °C
CSc1cc(C)nc(SC)c1NC(=O)CCCCCSc1nc2ccccc2o1	120 to 121 °C
Clc1cccc(CSc2nnc(-c3ccc4occc4c3)o2)c1	125 to 126 °C
